In US4663453A, “Benzo[b]pyrrolo[3,2,1-jk][1,4]benzodiazepines having dopamine receptor activity” (Hoechst-Roussel Pharmaceuticals Inc., priority 1985, dated 1987) one finds ED50 data, which are given here for 8 compounds.

One assay concerns apomorphine climbing. Put plainly: climbing mice assay (antipsychotic activity, apomorphine-induced climbing). The conditions noted are these: Mus musculus, po, apomorphine 1.5 mg/kg sc challenge. Type of assay: in vivo, mice (CK-1 male). As for the experimental part: Antipsychotic activity is determined in the climbing mice assay by a method similar to those described by P. Protais, et al., Psychopharmacol., 50, 1 (1976) and B. Costall, Eur. J. Pharmacol., 50, 39 (1978).
The subject CK-1 male mice (23-27 grams) are group-housed under standard laboratory conditions. The mice are individually placed in wire mesh stick cages (4"×4"×10") and are allowed one hour for adaptation and exploration of the new environment. Then apomorphine is injected subcutaneously at 1.5 mg/kg, a dose causing climbing in all subjects for 30 minutes. Compounds to be tested for antipsychotic activity are injected intraperitoneally or given oral doses at various time intervals, e.g. 30 minutes, 60 minutes, etc. prior to the apomorphine challenge at a screening dose of 10-60 mg/kg.
For evaluation of climbing, 3 readings are taken at 10, 20 and 30 minutes after apomorphine administration according to the following scale:
4 paws on bottom (no climbing)
2 paws on the wall (rearing)
4 paws on the wall (full climb)
Mice consistently climbing before the injection of apomorphine will be discarded.
With full-developed apomorphine climbing, the animals are hanging on to the cage walls, rather motionless, over longer periods of time. By contrast, climbs due to mere motor stimulation usually only last a few seconds.
The climbing scores are individually totaled (maximal score: 6 per mouse over 3 readings) and the total score of the control group (vehicle intraperitoneally--apomorphine subcutaneously) is set to 100%. ED50 values with 95% confidence limits, calculated by a Linear Regression Analysis, of some of the instant benzopyrrolobenzodiazepines as well as a standard antipsychotic agent are presented in Table 1.

The test system of assay [1] is phenylquinone induced writhing. Description: phenyl-p-quinone writhing assay in mice (analgesia). The class given is in vivo. The conditions noted are these: Mus musculus, sc, dose for approximately 50% inhibition of writhing. The text has this: Some of the benzopyrrolobenzodiazepines and quinobenzodiazepines of the present invention are also useful as analgetics due to their ability to alleviate pain in mammals. […] Exptl. Biol Med., 95 729 (1957)]. Thus, for instance, the subcutaneous dose effecting an approximately 50% inhibition of writhing (ED50) in mice produced in this assay is as shown in Table 2.
Background: Writhing tests count abdominal constrictions after an irritant is injected.

Usually ED50 stands for the dose at which the effect has come halfway, by size or by number of responders. A higher ED50 goes with a need for a large dose.

Where a name gives a salt, the structure may show the parent alone.

For `CN1CCN(C2=Nc3ccccc3-n3ccc4cc(Cl)cc2c43)CC1` [4-Chloro-6-(4-methyl-1-piperazinyl)benzo[b]pyrrolo[3,2,1-jk][1,4]benzodiazepine], the ED50 in the assay on apomorphine climbing came to 13.4 mg/kg.

As for `CN1CCN(C2=Nc3cc(Br)ccc3N3CCc4cccc2c43)CC1` [9-Bromo-6-(4-methyl-1-piperazinyl)-1,2-dihydrobenzo[b]pyrrolo[3,2,1-jk][1,4]benzodiazepine], it took a dose of 30.8 mg/kg to reach the 50% effect level in the assay with apomorphine climbing (ED50).

For the compound `CN1CCN(C2=Nc3cc(Br)ccc3-n3ccc4cccc2c43)CC1` [9-Bromo-6-(4-methyl-1-piperazinyl)benzo[b]pyrrolo[3,2,1-jk][1,4]benzodiazepine], the figures for the ED50 (in the assay on apomorphine climbing; in assay [1]) were 13.5 mg/kg and 0.72 mg/kg, respectively.

On to `CN(C)CCN(C)C1=Nc2cc(Br)ccc2N2CCc3cccc1c32` [9-Bromo-6-[(2-dimethylamino)-N-methylethylamino]-1,2-dihydrobenzo[b]pyrrolo[3,2,1-jk][1,4]benzodiazepine Dimaleate salt], for which the 50% effective dose (ED50) in assay [1] came out at 8.1 mg/kg.

With `Cc1ccc2c(c1)N=C(N1CCN(C)CC1)c1cccc3c1N2CC3` [9-Methyl-6-(4-methyl-1-piperazinyl)-1,2-dihydrobenzo[b]pyrrolo[3,2,1-jk][1,4]benzodiazepine], the 50% effective dose (ED50) in the assay on apomorphine climbing amounted to 25.5 mg/kg; in assay [1] it was 0.34 mg/kg.

As for `CN1CCN(C2=Nc3cc(Cl)ccc3N3CCc4cccc2c43)CC1` [9-chloro-6-(4-methyl-1-piperazinyl)-1,2-dihydrobenzo[b]pyrrolo[3,2,1-jk][1,4]benzodiazepine], it took a dose of 4.1 mg/kg to reach the 50% effect level in assay [1] (ED50).

In the assay with apomorphine climbing, `CN1CCN(C2=Nc3cc(Cl)ccc3Nc3ccccc32)CC1` [clozapine, reference compound] came in with a median effective dose (ED50) of 23.2 mg/kg.

In assay [1], `CCC(=O)O[C@](Cc1ccccc1)(c1ccccc1)[C@H](C)CN(C)C` [propoxyphene, reference compound] returned an ED50 of 3.9 mg/kg.
